Experimental data from the supplement of paper PMC8882468.

Assays:
Test in all cases: CTG-3D luminescence at 96 h relative to day-0 seeding control (ratio to day 0); higher = more growth / less cytotoxicity
HCI-001 = system: HCI-001 (organoid from a triple-negative breast cancer xenograft)
Procedure: (§1)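 PDxO 3D drug screen (set 2), 8-point dose, 96 h; CTG-3D luminescence normalised to day-0 seeding control (mean of 4 wells each).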

HCI-027 = system: HCI-027 (organoid from a triple-negative breast cancer xenograft)
Procedure: as §1

HCI-005.E2 = system: HCI-005.E2 (organoid from a breast cancer xenograft with a HER2-positive history)
Procedure: as §1

HCI-010 = system: HCI-010 (organoid from a breast cancer xenograft)
Procedure: as §1

HCI-016 = system: HCI-016 (organoid from a triple-negative breast cancer xenograft)
Procedure: as §1

HCI-011.E2 = system: HCI-011.E2 (organoid from an ER-positive breast cancer xenograft)
Procedure: as §1

CC/C(=C(\c1ccc(O)cc1)c1ccc(OCCN(C)C)cc1)c1ccccc1 [4-hydroxytamoxifen]
CTG-3D luminescence at 96 h
Settings	12.5 pM	0.00025 µM	0.005 µM	0.1 µM	1 µM	10 µM	100 µM	625 fM
HCI-001, days in culture: 365	2.24	2.14	2.59	3.06	2.55	1.86	0.0145	1.46
HCI-001, days in culture: 397	1.66	1.84	2.19	2.62	1.93	1.21	0.00832	1.25
HCI-001, days in culture: 401	1.75	1.39	1.52	1.38	1.26	1.52	0.00247	1.47
HCI-010, days in culture: 79	2.04	1.84	1.96	1.93	1.9	1.48	0.00321	2.05
HCI-010, days in culture: 86	1.97	2.48	2.21	2.15	2.19	1.35	0.0109	2.16
HCI-010, days in culture: 102	1.1	1.13	1.07	1.2	1.23	0.95	0.00505	0.88
HCI-010, days in culture: 164	1.4	1.46	1.45	1.45	1.38	0.899	0.00677	1.23
HCI-011.E2, days in culture: 74	2.1	1.95	2.01	2.04	1.63	1.31	-0.00194	2.23
HCI-016, days in culture: 305	2.77	4.59	2.65	4.18	2.47	1.67	0.0261	4.99
HCI-016, days in culture: 327	0.944	0.968	2.39	2.26	1.5	1.58	0.0115	1.27
HCI-016, days in culture: 341	2.5	1.22	2.22	1.54	1.41	1.48	0.00227	2.1
HCI-016, days in culture: 397	1.82	2.24	1.56	1.83	1.91	2.17	0.0134	2
HCI-027, days in culture: 145	1.3	2.12	1.24	1.83	1.18	0.699	0.00408	1.73
HCI-027, days in culture: 158	2.04	2.76	2.17	2.08	1.97	1.36	0.00947	4.26
HCI-027, days in culture: 164	1.94	2.01	1.46	2.16	1.19	1.86	0.0151	1.7
HCI-027, days in culture: 176	3.64	3.33	1.45	1.08	2.78	0.382	0.00762	2.5
HCI-027, days in culture: 186	1.39	2.63	2.25	1.45	0.447	0.154	0.0028	2.27

CTG-3D luminescence at 96 h
Settings	12.5 pM	0.00025 µM	0.005 µM	0.1 µM	1 µM	10 µM	100 µM	625 fM
HCI-005.E2	1.68	1.99	2.22	2.35	2.26	2.01	0.0139	2.45
HCI-011.E2	1.35	1.71	1.2	1.83	1.35	1.72	0.0138	1.77
